According to patent US11311609B2, “Regulating chimeric antigen receptors” (DANA-FARBER CANCER INSTITUTE, INC., priority 2017, dated 2022):

Columns and labels:
Assay type in all cases: cell-based
FKBP* = target: T1, FKBP* (Homo sapiens, UniProt P62942, F37V); test: Immunoblot of FKBP* degradation in 293FT cells (CRBN-WT or CRBN-/-); conditions: 293FT CRBN-WT; pretreated two hours with 1 uM Carfilzomib, 0.5 uM MLN4924 or 10 uM Lenalidomide, then 4 hour dFKBP13
T1 construct: HA; expressed in transfected cells; host or cells: 293FT cells (CRBN-WT or CRBN-/-)
Method: FIG. 6 is an immunoblot of cells treated with bi-functional molecules described in the present invention. As described in Example 3, 293FT cells (CRBN-WT or CRBN−/−) expressing either HA-tagged FKBP12WT or FKBP* (also referred to as dFKBP12* herein) were treated with indicated concentrations of dFKBP7 for 4 hours.
FIG. 8 is an immunoblot of cells treated with heterobifunctional compounds described in the present invention. Isogenic 293FT cells (CRBN-WT or CRBN−/−) expressing either FKBP12WT or FKBP* were treated with 100 nM of either dFKBP7 or dFKBP13 for 4 hours (Example 5).
FIG. 9 is an immunoblot of cells treated with heterobifunctional compounds described in the present invention. Isogenic 293FT cells (CRBN-WT or CRBN−/−) expressing HA-tagged FKBP* were treated with the indicated dose of dFKBP13 for 4 hours (Example 6).
FIG. 11 is an immunoblot of cells treated with heterobifunctional compounds described in the present invention. 293FT cells (CRBN-WT) expressing FKBP* were pretreated with 1 uM Carfilzomib (proteasome inhibitor), 0.5 uM MLN4924 (neddylation inhibitor), and 10 uM Lenalidomide (CRBN binding ligand) for two hours prior to a 4 hour treatment with dFKBP13 (Example 8). Degradation of HA-tagged FKBP* by dFKBP13 was rescued by the proteasome inhibitor Carfilzomib, establishing a requirement for proteasome function.
The dTAG is predicated on the selectivity of FKBP* specific ligands over endogenous, wild type FKBP. In 293T cells expressing wild type FKBP12 or FKBP*, dFKBP7 induces targeted degradation only in FKBP* expressing cells. An immunoblot of cells treated with bi-functional molecules described in the present invention was performed. 293FT cells (CRBN-WT or CRBN−/−) expressing either HA-tagged FKBP12WT or FKBP* were treated with indicated concentrations of dFKBP7 for 4 hours.
In 293T cells expressing wild type FKBP12 or FKBP*, treatment with dFKBP7 and dFKBP13 induces targeted degradation only in FKBP* expressing cells. Isogenic 293FT cells (CRBN-WT or CRBN−/−) were engineered to express either FKBP12WT or FKBP*. Cells were treated with 100 nM of either dFKBP7 or dFKBP13 for 4 hours before lysates were prepared for western immunoblot analysis.
In an effort to define the optimal concentration of dFKB13 heterobifunctional compounds to induce degradation of FKBP*, degradation was measured upon treatment with increasing concentrations of dFKBP13. Isogenic 293FT cells (CRBN-WT or CRBN−/−) were engineered to expressed HA-tagged FKBP*. Cells were treated with the indicated dose of dFKBP13 for 4 hours before lysates were prepared for western immunoblot analysis.
293FT cells (CRBN-WT) were engineered to express FKBP*. Cells were pretreated with 1 uM Carfilzomib (proteasome inhibitor), 0.5 uM MLN4924 (neddylation inhibitor), and 10 uM Lenalidomide (CRBN binding ligand) for two hours prior to a 4-hour treatment with dFKBP13. Lysates were prepared and western immunoblot analysis performed. Degradation of HA-tagged FKBP* by dFKBP13 was rescued by the proteasome inhibitor Carfilzomib, establishing a requirement for proteasome function.

[1] = tested on: KRAS signaling (pMEK and pAKT); test: Immunoblot of downstream surrogates of KRAS signaling in NIH3T3 cells expressing FKBP*-KRASG12V; conditions: NIH3T3 cells expressing dTAG-KRASG12V; 1 μM, 24 hours
Method: (§1) FIG. 19 is an immunoblot of NIH3T3 cells expressing KRASG12V allele fused to FKBP* in the N-terminus or C-terminus. Cells were treated with 500 nM dFKBP7 for the indicated time. Cells were harvested and immunoblotted to measure degradation of FKBP*-KRASG12V and downstream surrogates of KRAS signaling (e.g. pMEK and pAKT).
(§2) FIG. 20 is an immunoblot of NIH3T3 cells expressing FKBP* fused to the N-terminus of KRASG12V treated with 1 uM of the indicated dFKBP heterobifunctional compounds for 24 hours. Cells were harvested and immunoblotted to measure degradation of FKBP*-KRASG12V and downstream surrogates of KRAS signaling (e.g. pMEK and pAKT).
as §2, with “21” for “20”, “with” for “with 1 uM of”, “concentrations of dFKBP13” for “dFKBP heterobifunctional compounds”
FIG. 22 is an immunoblot of NIH3T3 cells expressing FKBP* fused to the N-terminus of KRASG12V treated with 1 uM dFKBP13 for the indicated time. Cells were harvested and immunoblotted to measure degradation of FKBP*-KRASG12V and downstream surrogates of KRAS signaling (e.g. pMEK and pAKT).
Cells were treated with 500 nM dFKBP7 for the indicated time. […]

FKBP*-KRASG12V = test: Immunoblot of FKBP*-KRASG12V degradation in NIH3T3 cells; conditions: NIH3T3 cells expressing dTAG-KRASG12V; 1 μM, 24 hours
Method: as §1
(§3) Cells were harvested and immunoblotted to measure degradation of FKBP*-KRASG12V and downstream surrogates of KRAS signaling (e.g. pMEK and pAKT).
as §3, §3
Cells were treated with 500 nM dFKBP7 for the indicated time. Cells were harvested and immunoblotted to measure degradation of FKBP*-KRAS and downstream surrogates of KRAS signaling (e.g. pMEK and pAKT).
(§4) Cells were harvested and immunoblotted to measure degradation of FKBP*-KRAS and downstream surrogates of KRAS signaling (e.g. pMEK and pAKT).
as §4
To evaluate the kinetic control of targeted degradation of dTAG-KRAS, dFKBP13 was administered by increased duration. […]

T1 sequence (P62942 whole entry F37V): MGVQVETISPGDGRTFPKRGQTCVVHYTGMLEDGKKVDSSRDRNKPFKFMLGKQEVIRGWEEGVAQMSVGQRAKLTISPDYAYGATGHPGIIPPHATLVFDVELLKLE

Effect of pretreatment on dFKBP13-induced degradation of HA-tagged FKBP* (FKBP*)	Compound	Inhibition of downstream signaling (pMEK, pAKT) [1]	Degradation of FKBP*-KRAS (FKBP*-KRASG12V)
rescued	CC(C)C[C@H](NC(=O)[C@H](CCc1ccccc1)NC(=O)CN1CCOCC1)C(=O)N[C@@H](Cc1ccccc1)C(=O)N[C@@H](CC(C)C)C(=O)[C@@]1(C)CO1 [Carfilzomib]	–	–
rescued HA-tagged FKBP*	NS(=O)(=O)OC[C@@H]1C[C@@H](n2ccc3c(N[C@H]4CCc5ccccc54)ncnc32)C[C@@H]1O [MLN4924]	–	–
–	CC[C@H](C(=O)N1CCCC[C@H]1C(=O)O[C@H](CCc1ccc(OC)c(OC)c1)c1cccc(OCC(=O)NCCCCCCCCNC(=O)COc2cccc3c2C(=O)N(C2CCC(=O)NC2=O)C3=O)c1)c1cc(OC)c(OC)c(OC)c1 (some centres unmarked) [dFKBP9]	inhibition of downstream signaling	potent degradation of FKBP*-KRAS

Compound	Effect of pretreatment on dFKBP13-induced degradation of HA-tagged FKBP* (FKBP*)	Inhibition of downstream signaling (pMEK, pAKT) [1]	Degradation of FKBP*-KRAS (FKBP*-KRASG12V)
Nc1cccc2c1CN(C1CCC(=O)NC1=O)C2=O (centres unmarked) [Lenalidomide]	abolished dFKBP13-dependent FKBP* degradation	–	–
